Measured values reported in paper PMC12070314, “Efficient Small-Molecule Reversal Agents for Anticoagulant Fondaparinux” (ACS Pharmacology & Translational Science, 2025).

Tests used:
[1] = test system: FXa/ATIII inhibited by fondaparinux; experiment: In vitro FXa/ATIII enzymatic assay of anti-fondaparinux activity; type: biochemical, human; settings: for Percent recovery of peptide substrate hydrolysis: [fond] = [antidote] = 15 μM, three reaction times
Procedure: The activity of two spermine derivatives, 3AC and 3FF, as fond antidotes was evaluated with an in vitro enzymatic assay related to blood coagulation, as previously described (Figure A). , In brief, fond promotes a conformational change in ATIII toward an efficient inhibitor of FXa. Addition of a ligand of fond hinders the inhibitory action of ATIII restoring the FXa hydrolytic activity, which has been used as an indirect measurement of antifond behavior.
Recombinant antithrombin III and coagulation factor Xa were obtained from two different kits, Berichrom Heparin test (SIEMENS) and Kinetichrome Anti-Xa Heparin kit (Iduron). Methods for both kits are similar, but not identical. Differences will be spotted by method A (SIEMENS) and method B (Iduron). Following the manufacturer’s instructions, stock solutions were prepared as follows: human antithrombin III (1 IU/mL) and factor Xa reagent (0.4 μg/mL, human plasma fraction with additives Tris, sodium chloride, and EDTA). Chromogenic substrate specific for factor Xa was dissolved at 4 mM concentration (A: Z-D-Leu-Gly-Arg-ANBA-methyl amide, and B: Z-D-Arg-Gly-Arg-pNA). Additionally, either 4-nitroaniline (A) or N-Boc-4-nitroaniline (B) was added to the substrate solution at a concentration of 1.6 mM and used as an internal standard to quantify the hydrolysis of the chromogenic substrate. All compounds were dissolved in Milli-Q water at the desired stock concentrations prior to start of the assays and kept at 4 °C. Various concentrations of the ligand, fondaparinux (up to 15 μM) or LMWH (0.1 to 10 μM), human antithrombin III solution (2 μL), and factor Xa reagent solution (35 μL) were consecutively added to an Eppendorf vial and brought to a total volume of 145 μL. Then, 20 μL of reagent substrate solution was added to start the experiment, and the mixture was vigorously shaken at 25 °C. 20 μL aliquots were taken at 5/10/15/20/30/50/80/120 minutes, diluted with 40 μL of acetic acid (20% v/v), and injected into the analytical HPLC system. The gradient ranged from 5% of ACN (0.1% formic acid) in water (0.1% formic acid) to 100% of ACN in 24 min using a 15 × 4.6 mm KROMAPHASE C18 5.0 μm column. In A: the retention time of cleaved chromophore was 9.1 min, retention time of chromogenic substrate was 13.9 min, and retention time of 4-nitroaniline was 15.4 min. In B: the retention time of chromogenic substrate was 11.0 min, retention time of cleaved chromophore was 15.2 min, and retention time of N-Boc-4-nitroaniline was 21.7 min. FXa/ATIII activity was represented as the percent of hydrolysis, which was calculated from the normalized area of the cleaved peptide at 405 nm at each corresponding time point. The experiment carried out in the absence of heparinoid was considered as the maximum of activity, while the experiment with heparinoid and no ligand was considered as negative control (maximum inhibition of FXa by heparinoid). The concentration of heparinoid was selected for the measurement to render significant inhibition within experimental time while allowing the reaction to proceed.

[2] = test system: freshly extracted mouse blood; experiment: Naked-eye ex vivo blood coagulation assay; type: cell-based; settings: for Reversal of fond anticoagulant effect (clot formation by vial inversion): 100 μM fond + 200 μM antidote, 5 min
Procedure: Considering the results obtained in the in vitro assays, we aimed to test our molecules in a more relevant and challenging environment. To this aim, we performed naked-eye ex vivo coagulation assays (Figure ). Freshly extracted mouse blood samples were treated with fond (100 μM final concentration) in the absence and in the presence of different antidotes (two molar equivalents). Blood coagulation was visually inspected by the simple inversion of the vials. For a fair comparison between different series, all of the experiments were done in parallel with the corresponding control samples of untreated mouse blood (labeled “0” in Figure ). […] The effect of antidotes alone on blood coagulation was also tested (Figure B), showing that neither of the three small molecules appreciably changed the coagulation properties.
This naked-eye coagulation test is an adaptation of the whole blood clotting time assay. , Freshly collected mouse blood was directly used without further treatment. 300 μL aliquots were dispensed in Eppendorf tubes, to which fondaparinux (100 μM), and/or potential antidotes (3AC, 3FF, ciraparantag, or protamine, 200 μM) were added, and a picture was taken after 5 min. Clot formation was verified by inverting the Eppendorf vials.

Compound	Percent recovery of peptide substrate hydrolysis [1]	Reversal of fond anticoagulant effect (clot formation by vial inversion) [2]	Effect of antidote alone on blood coagulation ([2]; 200 μM antidote, no fond)	Effect on FXa hydrolytic activity ([1]; fond 15 μM, FXa/ATIII, no antidote)	Effect on blood coagulation (vial inversion) ([2]; fond 100 μM alone)
protamine	practically no in vitro activity against fond	fails to be an antidote of fond	acts as an anticoagulant itself		
Oc1ccccc1CNCCCNCCCCNCCCNCc1ccccc1O [Compound 3AA]	lower potency as antidotes				
CO[C@H]1O[C@H](COS(=O)(=O)O)[C@@H](O[C@@H]2O[C@@H](C(=O)O)[C@@H](O[C@H]3O[C@H](COS(=O)(=O)O)[C@@H](O[C@@H]4O[C@H](C(=O)O)[C@@H](O[C@H]5O[C@H](COS(=O)(=O)O)[C@@H](O)[C@H](O)[C@H]5NS(=O)(=O)O)[C@H](O)[C@H]4O)[C@H](OS(=O)(=O)O)[C@H]3NS(=O)(=O)O)[C@H](O)[C@H]2OS(=O)(=O)O)[C@H](O)[C@H]1NS(=O)(=O)O [fond, Fondaparinux]				clearly reduces the hydrolytic activity	anticoagulant effect
N=C(N)NCCC[C@H](N)C(=O)NCCCN1CCN(CCCNC(=O)[C@@H](N)CCCNC(=N)N)CC1 [cir, ciraparantag, reference compound]	performs similarly to the spermine derivative ligand (3AA)	good antidote, though qualitatively less effective than 3AC/3FF			
COc1ccccc1CNCCCNCCCCNCCCNCc1ccccc1OC [Compound 3BB]	lower potency as antidotes				
